From US20060094790A1, “Use of sphingosine kinase activator as skin disease treating agent and method for treating skin diseases using the same” (priority 2004, published 2006)

How the values were obtained:
hairless mouse [1] = assay: Recovery of calcium gradient on epidermis, acute disruption model by tape stripping; assay type: in vivo; conditions: 1.0% in PEG:EtOH=7:3, after tape stripping, compared to control
Description: To determine the effect of recovering skin barrier effects obtained by the compound according to the present invention, the compound was evaluated for the effect of recovering a calcium ion gradient in the epidermis.
The calcium gradient in the epidermis plays very important role in maintaining homoeostasis of the skin barrier function. For example, when a hairless mouse is subjected to acute disruption on its back by tape stripping, the calcium ion gradient in the epidermis is lost. Therefore, it is possible to evaluate the effect of a test sample upon recovery of a damaged skin barrier by observing recovery of the calcium gradient loss in an acute disruption model.
In the following test, K6PC-5 according to the present invention was evaluated for the effect upon variations in calcium gradient in an acute disruption model.
Tissues non-treated with the sample were provided as control, and tissues were collected right after the tape striping, and 3, 6 and 24 hours after the tape stripping. Then, the tissues treated with K6PC-5 (1.0% in PEG:EtOH=7:3) were compared with controls, which are treated by calcium ion capture cell chemical dyeing. More particularly, each freshly collected tissue sample was fixed with a fixing solution comprising 2% glutaraldehyde, 2% formaldehyde, 90 mM potassium oxalate and 1.4% sucrose and refrigerated at 4° C. […]

SD rat = assay: Inhibition of wrinkles and skin aging, UV-induced wrinkle model; assay type: in vivo
Description: Generally, continuous exposure to UV causes wrinkles and side effects such as sun burn and skin irritation, resulting in stimulation of skin aging.
To perform the evaluation, an SD rat with three wrinkles is irradiated with UVB under an intensity of 130 mJ/cm^2 at its rear leg […] for 6 weeks. Then, 10 μl (1% in 80% EtOH) of K6PC-5 was applied to the skin of rear leg right after each time of UV irradiation, UV irradiation being performed 5 times per week during 6 weeks from the start day of the UV irradiation. Nine weeks after the treatment, the rat was anesthetized with albutin and the wrinkles were photographed. Additionally, wrinkle-forming portions were replicated by using an exafine hydrophilic vinyl polysiloxane impression material. The replicated images were analyzed quantitively for shadow images by using an image analyzer.

hairless mouse [2] = assay type: in vivo; conditions: 1.0% in PEG:EtOH=7:3 combined with 0.05% chlobetason-17-propionate, back of hairless mouse, H & E staining
Excerpt: To evaluate effect of the sphingosine kinase activator upon inhibition of steroid side effects, a steroid was applied to a hairless mouse. Typically, side effects caused by long-term or excessive dose of steroids include skin atrophy expressed by thinning of skin and weakening of skin functions, and a rebound phenomenon including reoccurrence of conditions caused by stopping use of steroids. It is reported that the main cause for such side effects is inhibition of fibroblast activity and a decrease in collagen production (S. Hammer et al., J. Cell. Biochem, 91, 840-851, 2004), Therefore, it is expected that the compound according to the present invention enhances collagen synthesis and differentiation of keratinocytes, and thus inhibits such side effects caused by steroids. To perform a test, a steroid, i.e. 0.05% chlobetason-17-propionate, and […]-5 according to the present invention (1.0% in PEG:EtOH=7:3) were applied to a hairless mouse and changes in the skin were observed. The treating agents were applied to the back of a hairless mouse 9 times per day and the tissue was collected. Then, the epidermis and dermis were observed by carrying out the H & E staining method (hematoxylin and eosin staining) known to one skilled in the art.

human body = conditions: in vivo
Description: Those tests were performed based on “Toxicity Test Standards for Pharmaceutical Products” disclosed by the Korea Food & Drug Administration.

Compound: CCCCCCCC(=O)C(CCCCCC)C(=O)NC(CO)CO (centres unmarked) [K6PC-5, N-(1,3-dihydroxyisopropyl)-2-hexyl-3-oxo-decanamide]
- recovery of calcium gradient in the epidermis (hairless mouse [1]): began to be recovered, from 3 hours after the treatment, to form the normal calcium gradient rapidly
- inhibition of wrinkles compared to vehicle control (SD rat; 10 μl of 1% in 80% EtOH after each UVB irradiation (130 mJ/cm^2), 6 weeks, replica image analysis): about 63%
- erythema caused by UV compared to vehicle control (SD rat; 10 μl of 1% in 80% EtOH after each UVB irradiation, skin photograph FIG. 4b): decrease in erythema
- inhibition of steroid side effects (skin atrophy) (hairless mouse [2]): significant inhibition of side effects caused by steroids
- Human body application test result (human body): No irritation
